Experiments:
[1] = target: D2L human dopamine receptors (Homo sapiens, UniProt P14416); experiment: D2 binding assay ([^3H]methylspiperone, HEK membranes)
Protocol: Compounds were tested for differences in affinity between three dopamine receptor subtypes using radio-labeled ligand binding assays. The first assay determined the Ki value of the compounds for the D2 DAR subtype using stable HEK cell lines expressing the D2L human dopamine receptors (Codex Biosciences, Gaithersburg, Md.). Cells were cultured in Dulbecco's modified Eagle's Medium containing 10% FBS, 1,000 units/mL Penicillin, 1,000 mg/mL Streptomycin, 100 mM Sodium Pyruvate, 1 μg/mL Gentamicin, and […] G418. All cells were maintained at 37° C. in 5% CO2 and 90% humidity. For radioligand binding assays, cells were removed mechanically using calcium and magnesium-free Earle's Balanced Salt Solution (EBSS(−)). Intact cells were collected by centrifugation and then lysed with 5 mM Tris-HCl and 5 mM MgCl2 at pH 7.4 in a glass homogenizer. Homogenates were centrifuged at 20,000×g for 30 minutes. The membranes were re-suspended in EBSS (pH 7.4) and protein concentration was determined using a Bradford assay according to the manufacturer's recommendations (Bio-Rad). Membranes were diluted to 24 mg/mL. […] Membrane preparations were incubated for 90 min at room temperature with various concentrations of radioligand in a reaction volume of 250 μL EBSS containing 200 mM sodium metabisulfite. Non-specific binding was determined in the presence of 4 μM (+)-butaclamol. Bound ligand was separated from unbound by filtration through GF/C filters using a PerkinElmer cell harvester with ice cold EBSS (4 washes) and quantified on a Top-count (PerkinElmer) after addition of scintillation solution. […] In order to determine the affinity of a given compound for a receptor type, competition-binding assays were performed. […] Reactions were incubated, terminated, and quantified as indicated above.

D2 receptor = experiment: PET study, displacement of the D2 receptor label [^11C]SV-130; assay type: in vivo, monkeys; conditions: i.v.
Protocol: Positron emission tomography (PET) was performed using live monkeys. A radioactive PET probe ([^11C]SV-130) for the D2 receptor was injected intravenously. PET images of coronal sections of the brain were obtained at the level of the caudate putamen. […] Monkeys were treated (i.v.) with either 1 mg/kg or 5 mg/kg ML321, a compound of Formula I (compound 55, Example 61).
The time course of PET ([^11C]SV-130) labelling of the caudate, putamen, and cerebellumum in the absence or presence of either 1 mg/kg or 5 mg/kg ML321 was plotted. […] When ML321 was injected i.v. the [^11C]SV-130 signal decreased gradually from about 20 minutes through the 100 minute observation period. The [^11C]SV-130 signal decrease was particularly dose dependent in the putamen graph.
The significance of the PET [^11C]SV-130 labelling data are two-fold. […] Second, the experiments provide direct evidence that ML321 can occupy D2 receptors in the CNS in living animals and completely block D2 receptors at a reasonable pharmacological dose.

D2L human dopamine receptors, sequence (P14416 whole entry): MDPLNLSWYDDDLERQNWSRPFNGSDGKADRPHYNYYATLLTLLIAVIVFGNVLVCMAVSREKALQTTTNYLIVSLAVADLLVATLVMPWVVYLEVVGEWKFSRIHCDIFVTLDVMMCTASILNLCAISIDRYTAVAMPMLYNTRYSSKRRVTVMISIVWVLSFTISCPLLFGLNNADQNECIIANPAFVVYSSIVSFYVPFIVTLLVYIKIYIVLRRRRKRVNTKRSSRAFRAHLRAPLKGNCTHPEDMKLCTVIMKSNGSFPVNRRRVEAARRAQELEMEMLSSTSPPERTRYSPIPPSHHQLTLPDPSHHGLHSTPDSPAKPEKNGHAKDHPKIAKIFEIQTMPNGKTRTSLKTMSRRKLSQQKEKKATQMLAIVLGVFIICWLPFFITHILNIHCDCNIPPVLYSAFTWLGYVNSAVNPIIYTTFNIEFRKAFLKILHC

CN1C(=O)c2ccccc2[S@+]([O-])c2ccc(C(=O)NCCc3cccs3)cc21 [Compound 55, 10-Methyl-11-oxo-N-(2-(thiophen-2-yl)ethyl)-10,11-dihydrodibenzo[b,f][1,4]thiazepine-8-carboxamide 5-(S)-oxide]
Ki [1]: 100 nM | D3/D2 binding Ki ratio ([1]; ratio of D3 (Example 5) to D2 (Example 3) binding assay): 29.0 | Blocking of [^11C]SV-130 D2 PET probe binding in the caudate putamen (D2 receptor; monkeys, 1 mg/kg or 5 mg/kg, images 20 to 100 minutes post injection): blocks the binding of the D2 receptor PET probe in the caudate putamen in a dose-dependent fashion | Blocking of [^11C]SV-130 labeling (D2 receptor; monkeys, 5 mg/kg): almost completely blocked | Blood-brain barrier crossing (D2 receptor; primates, PET evidence): can cross the blood-brain barrier in primates

Reference: patent US9550742B2, “11-OXO-10,11-dihydrodibenzo[B,F][1,4]thiazepine S-oxide derivatives and their use as dopamine D2 receptor antagonists” (The United States of America, as Represented by the …, priority 2013, dated 2017)
